Test results: patent publication US20090131337A1, “HAIR GROWTH COMPOSITION” (AJINOMOTO CO. INC, priority 2006, published 2009)

Key:
[1] = tested on: hair papilla cells; experiment: Hair papilla cell proliferation test (MTT method); format: cell-based; conditions: concentration used 100 · mol/L; 2 days culture; DMEM with 1% FCS; medium free of hair growth components = 100
Method: (1) Using a proliferation medium PCGM: Papilla Cell Growth Medium (purchased from TOYOBO CO., LTD., TPGM-250), hair papilla cells were plated to a cell seeding density of 1.0×10^4 cells/well in a 96 well plate.
(§1) (2) After culturing at 37° C. in a 5% carbon dioxide gas (CO2) atmosphere for one day, the medium was removed, and the cells were washed with an evaluation medium used for cell proliferation tests, i.e., DMEM (Dulbecco's Modified Eagle's Medium) medium containing 1% FCS (fetal bovine serum). Then, various test components were dissolved in a similar evaluation medium and added to various concentrations (* mol/l).
(3) Subsequently, the cells were further cultured at 37° C. in a 5% carbon dioxide gas (CO2) atmosphere for 2 days, and the hair papilla cell proliferation rate was measured by the MTT method.
(§2) (4) The relative evaluation value was calculated based on the rate obtained using a medium free of various hair growth components as 100, and the value was taken as the proliferation rate.

[2] = tested on: human epidermal keratinocytes; experiment: Human epidermal keratinocyte proliferation test (MTT method, MCDB153 medium); format: cell-based; conditions: concentration used 50 · mol/L, 2 days culture, medium free of hair growth components = 100
Method: (1) Using a serum-free proliferation medium HuMedia-KB2 (purchased from KURABO INDUSTRIES LTD., KK-2350S) added with a proliferation additive HuMedia-KG (purchased from KURABO INDUSTRIES LTD., KK-6150), human epidermal keratinocytes were plated to a cell seeding density of 2.0×10^4 cells/well in a 96 well plate.
as §1, with “MCDB153 medium.” for “DMEM (Dulbecco's Modified Eagle's Medium) medium containing 1% FCS (fetal bovine serum).”
(3) Subsequently, the cells were further cultured at 37° C. in a 5% carbon dioxide gas (CO2) atmosphere for 2 days, and the human epidermal keratinocyte proliferation rate was measured by the MTT method.
as §2

[3] = Solubility of glutamyllysine powder in solvents; format: physicochemical

SMILES | hair papilla cell proliferation rate (%) [1] | keratinocyte proliferation rate (%) [2] | solubility in alkaline water, acidic water ([3]; alkaline water, acidic water and the like) | solubility in organic solvents ([3]; various organic solvents such as methanol, ethanol, acetone)
Nc1ncnc2c1ncn2[C@@H]1O[C@H](CO)[C@@H](O)[C@H]1O [adenosine] | 99% | 118% | – | –
NC(CCCCNC(=O)CCC(N)C(=O)O)C(=O)O (centres unmarked) [glutamyllysine, Epsilon-N-(gamma-glutamyl)lysine] | 124% | 131% | soluble | hardly soluble or insoluble
Nc1cc(N2CCCCC2)nc(N)[n+]1[O-] [minoxidil] | 113% | 117% | – | –
